Experimental data: patent publication US4430502A, “Pyridinyl substituted benzimidazoles and quinoxalines” (The Upjohn Company, priority 1982, dated 1984)

Target: T1, TXA2 synthetase (Homo sapiens, UniProt P24557)
T1 construct: human platelet microsomes (HPM); from tissue; host or cells: human platelet microsomes
T1 sequence (P24557 1-533): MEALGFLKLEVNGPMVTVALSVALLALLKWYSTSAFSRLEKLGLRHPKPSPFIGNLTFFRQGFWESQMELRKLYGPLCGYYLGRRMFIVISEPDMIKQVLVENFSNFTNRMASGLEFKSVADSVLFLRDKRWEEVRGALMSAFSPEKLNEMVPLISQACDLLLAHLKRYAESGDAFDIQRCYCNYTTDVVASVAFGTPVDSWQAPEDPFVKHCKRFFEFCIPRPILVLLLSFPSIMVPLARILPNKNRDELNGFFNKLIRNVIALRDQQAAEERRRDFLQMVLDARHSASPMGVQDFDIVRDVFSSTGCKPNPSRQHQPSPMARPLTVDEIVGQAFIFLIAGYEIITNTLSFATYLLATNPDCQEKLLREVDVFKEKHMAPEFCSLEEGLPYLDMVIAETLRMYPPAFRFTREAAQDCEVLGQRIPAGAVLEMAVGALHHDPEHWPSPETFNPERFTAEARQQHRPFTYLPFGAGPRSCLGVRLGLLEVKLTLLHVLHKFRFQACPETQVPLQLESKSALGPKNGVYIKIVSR
Assay: TXA2 inhibition test: TXA2 generated from PGH2 with human platelet microsomes, response of superfused rabbit aortic strips
Type: biochemical
Protocol: The compounds of the present invention were tested for TXA2 inhibition as follows:
Rabbit aortic strips were superfused in series with Krebs solution. Thromboxane A2 (TXA2) was generated by mixing prostaglandin H2 (PGH2) with human platelet microsomes (HPM).
Potential inhibitors were tested by comparing the response of the rabbit aorta to the amount of TXA2 produced by mixing PGH2 and HPM without the test compound in the reaction medium and then the amount of TXA2 produced when the test compound was added to the HPM 5 minutes before the HPM was mixed with PGH2. […] For a discussion of TXA2 synthetase inhibition testing see, e.g., R. Gorman, supra.

In the case of c1cncc(Cc2ccc3nc[nH]c3c2)c1 [Example 3, 5-(3-Pyridinylmethyl)benzimidazole], the “effectiveness in inhibiting TXA2 formation” value (compared with the other compounds tested in this test system) is reported as “most effective” and the IC50 (test compound added to human platelet microsomes 5 minutes before mixing with PGH2, rabbit aorta response, read-out: approximate ED50 for inhibiting TXA2 formation (converted)) is reported as ~478 nM.
